What all share (type): functional, cell-based
One assay has as its system HeLa. In words: Cytotoxicity against human HeLa cells by MTT assay.
For another assay, the system named is KB. In words: Cytotoxicity against human KB cells by MTT assay. (Tetrazolium dyes change colour on reduction, which living cells bring about.)
Another assay has as its system HT-29. In words: Cytotoxicity against human HT-29 cells by MTT assay.
For a further assay, the system named is BGC-823. In words: Cytotoxicity against human BGC823 cells by MTT assay.
Another assay relates to 769-P. As to the kind of experiment: Cytotoxicity against human 769-P cells by MTT assay.
The nature of assay [1]: Cytotoxicity against human 786-O cells by MTT assay. The following applies: 786-0.
The test system of the next assay is A-375. As to the kind of experiment: Cytotoxicity against human A375 cells by MTT assay.
The test system of another assay is HepG2. As to the kind of experiment: Cytotoxicity against human HepG2 cells by MTT assay.
The next assay deals with Bel-7402. In words: Cytotoxicity against human Bel7402 cells by MTT assay.
The subject of a further assay is A549. As to the kind of experiment: Cytotoxicity against human A549 cells by MTT assay.

In ChEMBL document CHEMBL1152167, “Synthesis and cytotoxic activities of 1-benzylidine substituted beta-carboline derivatives” (Bioorg Med Chem Lett, 2008) one finds IC50 data, which are given here for 18 compounds.

In the case of `C(=C\c1nccc2c1[nH]c1ccccc12)/c1ccccc1`, the half-inhibitory concentration (IC50) – broadly, the midpoint of a concentration-inhibition curve – was 139 µM with HeLa; greater than 200 µM in the assay with KB; 62.9 µM in the assay with HT-29; greater than 200 µM in the assay on BGC-823; 7.8 µM in the assay with 769-P; 37.5 µM in assay [1]. Besides, the IC50 in the assay with A-375 worked out at 71.4 µM; with HepG2, 171 µM; in the assay with Bel-7402, 190 µM; in the assay on A549, 36.7 µM.

For `COc1cc(/C=C/c2nccc3c2[nH]c2ccccc23)cc(OC)c1OC`, the IC50 in the assay on HeLa was 50.5 µM; with KB, 24.6 µM; with HT-29, 27.8 µM; in the assay on BGC-823, 66.2 µM; in the assay on 769-P it was 5.7 µM; in [1], 14.4 µM. The IC50 in the assay with A-375 amounted to 23.9 µM; with HepG2, 32.2 µM; in the assay with Bel-7402, 34.6 µM; in the assay with A549, 12.8 µM.

In the case of `O=[N+]([O-])c1ccc(/C=C/c2nccc3c4ccccc4n(CCCc4ccccc4)c23)cc1`, the IC50 (with HeLa; in the assay on KB; in the assay on HT-29; in the assay with BGC-823; in the assay on 769-P; in assay [1]) was greater than 200 µM in each case. Besides, the IC50 with A-375, in the assay on HepG2, in the assay on Bel-7402 and in the assay on A549 was greater than 200 µM throughout.

For `COc1ccc(/C=C/c2nccc3c4ccccc4n(CCCc4ccccc4)c23)cc1`, the IC50 with HeLa is greater than 200 µM; with KB it was 58.9 µM; in the assay with HT-29, greater than 200 µM; in the assay with BGC-823, greater than 200 µM; in the assay on 769-P, 123 µM; in assay [1], 92.3 µM. Further, the IC50 is greater than 200 µM in the assay with A-375, 186 µM in the assay with HepG2, greater than 200 µM in the assay on Bel-7402 and 127 µM in the assay with A549.

As to `CCCCOc1ccc2c3ccnc(/C=C/c4ccc(OC)cc4)c3n(CCCc3ccccc3)c2c1`, the 50% inhibitory concentration (IC50) in the assay with HeLa was 92.3 µM; in the assay with KB, 150 µM; with HT-29 it was 54.3 µM; in the assay with BGC-823, greater than 200 µM; with 769-P, 62.9 µM; in assay [1] it was 89.1 µM. Also, the IC50 with A-375 was 64.3 µM; in the assay on HepG2, 92.9 µM; in the assay with Bel-7402, greater than 200 µM; in the assay with A549, 78.6 µM.

On to `Cc1nccc2c3ccccc3n(CCCc3ccccc3)c12`, for which the IC50 was greater than 1000 µM in the assay on HeLa, 987 µM in the assay on BGC-823, 449 µM in the assay on HepG2 and 449 µM with Bel-7402.

As to `COc1ccc(/C=C/c2nccc3c2[nH]c2ccccc23)cc1`, the IC50 in the assay with HeLa worked out at 142 µM; with KB, 29.5 µM; in the assay on HT-29, 21.3 µM; with BGC-823, 167 µM; in the assay on 769-P it was 25.6 µM; in [1], 12.9 µM. Besides, the IC50 worked out at 42.2 µM in the assay with A-375, 60.5 µM in the assay with HepG2, 118 µM in the assay on Bel-7402 and 47.1 µM with A549.

In the case of `CCCCOc1ccc2c3ccnc(/C=C/c4ccc([N+](=O)[O-])cc4)c3n(CCCc3ccccc3)c2c1`, the concentration for half-maximal inhibition (IC50) (with HeLa; with KB; with HT-29; with BGC-823; in the assay with 769-P; in [1]) was greater than 200 µM each time. The IC50 in the assay on A-375, in the assay on HepG2, in the assay on Bel-7402 and in the assay with A549 was greater than 200 µM throughout.

Take `CCCCn1c2ccccc2c2cc[n+](Cc3ccccc3)c(/C=C/c3ccc(OC)cc3)c21`: the IC50 in the assay on HeLa was 6.7 µM; with KB it was 3.9 µM; in the assay with HT-29 it was 7.8 µM; in the assay on BGC-823, 21.8 µM; with 769-P it was 5.1 µM; in assay [1] it was 11.2 µM. Also, the IC50 was found to be 8.4 µM with A-375, 6.7 µM in the assay on HepG2, 7.7 µM with Bel-7402 and 9.1 µM in the assay on A549.

Consider `COc1ccc(/C=C/c2c3c(cc[n+]2Cc2ccccc2)c2ccccc2n3CCCc2ccccc2)cc1`, for which the IC50 in the assay on HeLa is 4.5 µM; in the assay on KB, 0.93 µM; in the assay with HT-29, 4.3 µM; with BGC-823, 0.46 µM; with 769-P it was 4.6 µM; in assay [1], 3.2 µM. Further, the IC50 in the assay on A-375 stood at 0.68 µM; in the assay with HepG2, 2.1 µM; in the assay on Bel-7402, 2.9 µM; in the assay with A549 it was 3.9 µM.

Take `CC(=O)n1c2ccccc2c2cc[n+](Cc3ccccc3)c(/C=C/c3ccc([N+](=O)[O-])cc3)c21`: the IC50 with HeLa came to 14.4 µM; in the assay with KB it was 15.4 µM; with HT-29 it was 10.5 µM; in the assay with BGC-823, 14.8 µM; in the assay with 769-P it was 19.8 µM; in assay [1], 28.6 µM. Moreover, the IC50 in the assay with A-375 is 25.3 µM; with HepG2, 5.2 µM; in the assay on Bel-7402, 17.9 µM; in the assay with A549, 7.6 µM.

Regarding `CCCCOc1ccc2c3cc[n+](Cc4ccccc4)c(/C=C/c4ccc([N+](=O)[O-])cc4)c3n(CCCc3ccccc3)c2c1`, the IC50 in the assay on HeLa came out at 2.9 µM; in the assay on KB it was 2.4 µM; with HT-29, 2.5 µM; in the assay with BGC-823, 4.1 µM; in the assay on 769-P, 3.1 µM; in assay [1], 2.7 µM. The IC50 with A-375 is 4.5 µM; with HepG2, 1.3 µM; in the assay with Bel-7402 it was 1.5 µM; with A549, 2.8 µM.

In the case of `CCCCOc1ccc2c3cc[n+](Cc4ccccc4)c(/C=C/c4ccc(OC)cc4)c3n(CCCc3ccccc3)c2c1`, the IC50 in the assay on HeLa came out at 6.8 µM; in the assay with KB, 2.7 µM; in the assay with HT-29 it was 3.2 µM; in the assay with BGC-823, 7.1 µM; in the assay on 769-P, 8.2 µM; in assay [1], 4.6 µM. In addition, the IC50 in the assay with A-375 was 7.3 µM; in the assay on HepG2 it was 8.9 µM; with Bel-7402, 1.6 µM; with A549 it was 3.4 µM.

On to `CCCCn1c2ccccc2c2ccnc(/C=C/c3ccc(OC)cc3)c21`, for which the IC50 is 88.8 µM in the assay on HeLa; 30.1 µM in the assay with KB; greater than 200 µM with HT-29; 141 µM in the assay with BGC-823; 25.2 µM in the assay with 769-P; 67.4 µM in assay [1]. The IC50 was determined as 59.5 µM in the assay on A-375, 66 µM in the assay on HepG2, 29.7 µM with Bel-7402 and 38.1 µM in the assay on A549.

As for `CCCCn1c2ccccc2c2ccnc(C)c21`, the IC50 in the assay with HeLa came out at 102 µM; with BGC-823, 264 µM; in the assay on HepG2 it was 145 µM; in the assay on Bel-7402 it was 145 µM.

In the case of `COc1ccc(/C=C/c2c3[nH]c4ccccc4c3cc[n+]2Cc2ccccc2)cc1`, the IC50 was 32.1 µM in the assay with HeLa; 17.9 µM with KB; 9.4 µM in the assay on HT-29; 22.9 µM in the assay with BGC-823; 4.9 µM with 769-P; 10 µM in assay [1]. The IC50 was found to be 28.2 µM with A-375, 9.6 µM with HepG2, 22.5 µM with Bel-7402 and 10.8 µM in the assay on A549.

In the case of `CC(=O)n1c2ccccc2c2ccnc(/C=C/c3ccc([N+](=O)[O-])cc3)c21`, the half-maximal inhibitory concentration (IC50) (in the assay on HeLa; in the assay with KB; in the assay with HT-29; in the assay on BGC-823; with 769-P; in assay [1]) was greater than 200 µM throughout. The IC50 with A-375 is greater than 200 µM; in the assay with HepG2, 197 µM; with Bel-7402 it was greater than 200 µM; in the assay on A549, greater than 200 µM.

With `Cc1nccc2c1[nH]c1ccccc12` [HARMAN], the IC50 with HeLa stood at 186 µM; in the assay with BGC-823, 215 µM; in the assay with HepG2 it was 115 µM; in the assay on Bel-7402, 151 µM.
